Measurements reported in patent EP1769804B1, “hPTH(1-34) for use in preventing or reducing the incidence or severity of vertebral and / or non vertebral fracture in a male human” (priority 1998, dated 2012).
Marks after values point to notes of the source that are not given here.

Test system: Ovariectomized Primates
Test: Cortical histomorphometry of the humerus midshaft
Assay type: in vivo, Macaca fascicularis
Conditions: mean ± SEM
Text: Biomechanical tests were done on lumbar vertebrae L-3 to L-4, the femur neck, humerus midshaft, and on a cortical bone specimen machined from the femur diaphysis (measures defined in Table 2). Conventional static and dynamic histomorphometry were done (measures described in Table 6) on the humerus midshaft, lumbar vertebra L-2, femoral neck, femur midshaft, the radius midshaft and distal radius. Initial statistical analyses compared all groups to vehicle-treated ovariectomized controls. The data is suitable for additional exploratory analyses to examine dose dependency, effects of withdrawal, interactions between outcomes, and changes in time by methods known to those of skill in the art. All assays were conducted and determined by methods known in the art.
For certain experimental subjects, cortical bone of the humerus was examined by histomorphometry and by polarized Fourier transform infrared microscopy. The Fourier transform infrared microscopy was conducted by an adaptation of known methods for such microscopy.

[1] = PTH1-W: withdrawal after 1 µg/kg for 12 months
[2] = PTH5-W: withdrawal after 5 µg/kg for 12 months

Question: Which “Ac.F (Activation frequency)” value [1] does the source give for teriparatide [rhPTH(1-34)] here?
Answer: 3.05 ± 2.15^a cycles/year

Question: What about the “B.Ar (Bone area, the total area within the periosteal surface)” value (“B.Ar” below) [1] of the same substance?
Answer: 54.94 ± 6.55 mm^2

Question: And the “BFR/BS.Ec (bone formation rate, endocortical surface referent)” value (“BFR/BS.Ec” for short) [1]?
Answer: 14.89 ± 10.32 µm/day

Question: What about the “BFR/BS.Ps (Bone formation rate, periosteal surface referent)” value (from here on “BFR/BS.Ps”) [1] of the same substance?
Answer: 3.60 ± 3.84^a µm/day

Question: What about the “BFR/BV (Bone formation rate, bone volume referent)” value (“BFR/BV” below) [1] of the same substance?
Answer: 4.39 ± 3.48^a %/year

Question: What about the “Ct.Ar (Cortical area)” value [1] of the same substance?
Answer: 38.10 ± 4.83 mm^2

Question: What about the “FP (Formation period)” value [1] of the same substance?
Answer: 64.94 ± 11.99 days

Question: And the “L.On.N/Ct.A (Number of fluorochrome labeled osteons per unit cortical area)” value [1]?
Answer: 0.50 ± 0.36^a #/mm^2

Question: What about the “MAR (Mineral apposition rate, intracortical)” value [1] of the same substance?
Answer: 1.06 ± 0.27 µm/day

Question: What about the “MAR.Ec (Mineral apposition rate, endocortical surface)” value (“MAR.Ec” for short) [1] of the same substance?
Answer: 0.66 ± 0.16 µm/day

Question: What about the “MAR.Ps (mineral apposition rate, periosteal surface)” value (from here on “MAR.Ps”) [1] of the same substance?
Answer: 0.54 ± 0.15^a µm/day

Question: And the “MS/BS.Ec (mineralizing endocortical surface normalized to total endocortical surface)” value [1]?
Answer: 11.74 ± 14.41^a %

Question: What about the “MS/BS.Ps (Mineralizing periosteal surface normalized to total periosteal surface)” value [1] of the same substance?
Answer: 3.86 ± 4.83^a %

Question: And the “Me.Ar (Medullary cavity area)” value [1]?
Answer: 16.84 ± 3.74 mm^2

Question: What about the “O.Wi (Osteoid width)” value [1] of the same substance?
Answer: 3.96 ± 0.83 µm

Question: What about the “Po (Porosity, the percentage of bone area occupied by spaces)” value [1] of the same substance?
Answer: 2.23 ± 1.60%

Question: And the “Rs.N/Ct.A (number of resorption spaces per unit cortical area)” value [1]?
Answer: 0.12 ± 0.07^a #/mm^2

Question: And the “W.Wi (Osteonal wall width)” value [1]?
Answer: 63.12 ± 17.35 µm

Question: And the “omt (Osteoid maturation time)” value [1]?
Answer: 3.86 ± 0.74 days

Question: And the “Ac.F (Activation frequency)” value (PTH1: 1 µg/kg for 18 months)?
Answer: 7.69 ± 4.96 cycles/year

Question: And the “B.Ar” value (PTH1: 1 µg/kg for 18 months)?
Answer: 54.22 ± 5.97 mm^2

Question: And the “BFR/BS.Ec” value (PTH1: 1 µg/kg for 18 months)?
Answer: 18.14 ± 13.95 µm/day

Question: What about the “BFR/BS.Ps” value (PTH1: 1 µg/kg for 18 months) of the same substance?
Answer: 8.53 ± 10.54 µm/day

Question: What about the “BFR/BV” value (PTH1: 1 µg/kg for 18 months) of the same substance?
Answer: 19.23 ± 5.93 %/year

Question: And the “Ct.Ar (Cortical area)” value (PTH1: 1 µg/kg for 18 months)?
Answer: 37.61 ± 3.86 mm^2

Question: What about the “FP (Formation period)” value (PTH1: 1 µg/kg for 18 months) of the same substance?
Answer: 63.44 ± 10.02 days

Question: And the “L.On.N/Ct.A (Number of fluorochrome labeled osteons per unit cortical area)” value (PTH1: 1 µg/kg for 18 months)?
Answer: 1.26 ± 0.71 #/mm^2

Question: And the “MAR (Mineral apposition rate, intracortical)” value (PTH1: 1 µg/kg for 18 months)?
Answer: 0.98 ± 0.12^a µm/day

Question: And the “MAR.Ec” value (PTH1: 1 µg/kg for 18 months)?
Answer: 0.66 ± 0.15 µm/day

Question: And the “MAR.Ps” value (PTH1: 1 µg/kg for 18 months)?
Answer: 0.89 ± 0.95 µm/day

Question: And the “MS/BS.Ec (mineralizing endocortical surface normalized to total endocortical surface)” value (PTH1: 1 µg/kg for 18 months)?
Answer: 25.19 ± 17.14%

Question: What about the “MS/BS.Ps (Mineralizing periosteal surface normalized to total periosteal surface)” value (PTH1: 1 µg/kg for 18 months) of the same substance?
Answer: 8.59 ± 5.73%

Question: And the “Me.Ar (Medullary cavity area)” value (PTH1: 1 µg/kg for 18 months)?
Answer: 16.61 ± 3.77 mm^2

Question: And the “O.Wi (Osteoid width)” value (PTH1: 1 µg/kg for 18 months)?
Answer: 3.66 ± 0.67 µm

Question: What about the “Po (Porosity, the percentage of bone area occupied by spaces)” value (PTH1: 1 µg/kg for 18 months) of the same substance?
Answer: 4.65 ± 4.78%

Question: What about the “Rs.N/Ct.A (number of resorption spaces per unit cortical area)” value (PTH1: 1 µg/kg for 18 months) of the same substance?
Answer: 0.28 ± 0.18 #/mm^2

Question: What about the “W.Wi (Osteonal wall width)” value (PTH1: 1 µg/kg for 18 months) of the same substance?
Answer: 61.36 ± 7.79 µm

Question: What about the “omt (Osteoid maturation time)” value (PTH1: 1 µg/kg for 18 months) of the same substance?
Answer: 3.76 ± 0.70 days

Question: What about the “Ac.F (Activation frequency)” value [2] of the same substance?
Answer: 2.05 ± 1.46^a cycles/year

Question: What about the “B.Ar” value [2] of the same substance?
Answer: 58.16 ± 8.79^a mm^2

Question: What about the “BFR/BS.Ec” value [2] of the same substance?
Answer: 12.73 ± 16.33^a µm/day

Question: And the “BFR/BS.Ps” value [2]?
Answer: 5.79 ± 4.05 µm/day

Question: What about the “BFR/BV” value [2] of the same substance?
Answer: 2.21 ± 1.73^a %/year

Question: What about the “Ct.Ar (Cortical area)” value [2] of the same substance?
Answer: 40.83 ± 5.80^a mm^2

Question: What about the “FP (Formation period)” value [2] of the same substance?
Answer: 88.63 ± 52.90 days

Question: And the “L.On.N/Ct.A (Number of fluorochrome labeled osteons per unit cortical area)” value [2]?
Answer: 0.38 ± 0.26^a #/mm^2

Question: And the “MAR (Mineral apposition rate, intracortical)” value [2]?
Answer: 0.85 ± 0.28^a µm/day

Question: And the “MAR.Ec” value [2]?
Answer: 0.63 ± 0.17 µm/day

Question: What about the “MAR.Ps” value [2] of the same substance?
Answer: 0.82 ± 0.15 µm/day

Question: And the “MS/BS.Ec (mineralizing endocortical surface normalized to total endocortical surface)” value [2]?
Answer: 8.93 ± 15.39^a %

Question: What about the “MS/BS.Ps (Mineralizing periosteal surface normalized to total periosteal surface)” value [2] of the same substance?
Answer: 2.30 ±3.76^a %

Question: What about the “Me.Ar (Medullary cavity area)” value [2] of the same substance?
Answer: 17.34 ± 6.05 mm^2

Question: And the “O.Wi (Osteoid width)” value [2]?
Answer: 3.76 ± 0.83 µm

Question: What about the “Po (Porosity, the percentage of bone area occupied by spaces)” value [2] of the same substance?
Answer: 6.40 ± 4.22^a %

Question: What about the “W.Wi (Osteonal wall width)” value [2] of the same substance?
Answer: 63.82 ± 8.31 µm

Question: And the “omt (Osteoid maturation time)” value [2]?
Answer: 5.07 ± 2.65 days

Question: And the “Ac.F (Activation frequency)” value (PTH5: 5 µg/kg for 18 months)?
Answer: 8.70 ± 3.97 cycles/year

Question: What about the “B.Ar” value (PTH5: 5 µg/kg for 18 months) of the same substance?
Answer: 55.81 ± 6.24 mm^2

Question: What about the “BFR/BS.Ec” value (PTH5: 5 µg/kg for 18 months) of the same substance?
Answer: 34.04 ± 19.01 µm/day

Question: What about the “BFR/BS.Ps” value (PTH5: 5 µg/kg for 18 months) of the same substance?
Answer: 8.99 ± 5.81 µm/day

Question: What about the “BFR/BV” value (PTH5: 5 µg/kg for 18 months) of the same substance?
Answer: 12.93 ± 5.94^a %/year

Question: And the “Ct.Ar (Cortical area)” value (PTH5: 5 µg/kg for 18 months)?
Answer: 40.96 ± 4.30^a mm^2

Question: And the “FP (Formation period)” value (PTH5: 5 µg/kg for 18 months)?
Answer: 81.97 ± 95.63 days

Question: And the “L.On.N/Ct.A (Number of fluorochrome labeled osteons per unit cortical area)” value (PTH5: 5 µg/kg for 18 months)?
Answer: 1.45 ± 0.47^a #/mm^2

Question: What about the “MAR (Mineral apposition rate, intracortical)” value (PTH5: 5 µg/kg for 18 months) of the same substance?
Answer: 1.03 ± 0.23 µm/day

Question: What about the “MAR.Ec” value (PTH5: 5 µg/kg for 18 months) of the same substance?
Answer: 0.75 ± 0.14 µm/day

Question: And the “MAR.Ps” value (PTH5: 5 µg/kg for 18 months)?
Answer: 0.66 ± 0.17 µm/day

Question: What about the “MS/BS.Ec (mineralizing endocortical surface normalized to total endocortical surface)” value (PTH5: 5 µg/kg for 18 months) of the same substance?
Answer: 40.47 ± 24.68^a %

Question: What about the “MS/BS.Ps (Mineralizing periosteal surface normalized to total periosteal surface)” value (PTH5: 5 µg/kg for 18 months) of the same substance?
Answer: 11.00 ± 9.63%

Question: What about the “Me.Ar (Medullary cavity area)” value (PTH5: 5 µg/kg for 18 months) of the same substance?
Answer: 14.85 ± 4.72^a mm^2

Question: And the “O.Wi (Osteoid width)” value (PTH5: 5 µg/kg for 18 months)?
Answer: 3.94 ± 1.13 µm

Question: What about the “Po (Porosity, the percentage of bone area occupied by spaces)” value (PTH5: 5 µg/kg for 18 months) of the same substance?
Answer: 6.78 ± 4.23^a %

Question: And the “Rs.N/Ct.A (number of resorption spaces per unit cortical area)” value (PTH5: 5 µg/kg for 18 months)?
Answer: 0.43 ± 0.26^a #/mm^2

Question: What about the “W.Wi (Osteonal wall width)” value (PTH5: 5 µg/kg for 18 months) of the same substance?
Answer: 65.29 ± 9.43 µm

Question: And the “omt (Osteoid maturation time)” value (PTH5: 5 µg/kg for 18 months)?
Answer: 6.45 ± 13.85 days
